Data published in patent EP2982368A1, “Small molecule compounds displacing focal adhesion core components” (Universität Konstanz, priority 2014, dated 2016).

How the values were obtained:
FAK/Paxillin = target: T1, FAK/Paxillin (Mus musculus, UniProt P34152+Q8VI36); test: FAK/Paxillin displacement by structurally related compounds (FootLocker series, confocal microscopy); type: cell-based
T1 construct: expressed in transfected cells; host or cells: mouse fibroblasts stably expressing GFP-FAK
Protocol: To determine whether compounds structurally related to Mb31 and Mb36 are likewise suitable to interfere with FAK localization at focal adhesions, mouse fibroblasts stably expressing GFP-FAK were treated for 30 min with 1, 10 or 20 µM of the following compounds: trans-3-hydroxy-β-nitrostyrene (THBN), trans-4-Chloro-β-nitrostyrene (T4CN), trans-β-nitrostyrene (TBN), 4-chlorocinnamic acid (4CA), and trans-3-(4-bromothiophen-2-yl)acrylic acid (T34BA) (Figures 16 and 17). The cells were analyzed by confocal microscopy for GFP-FAK localization. DMSO treatment served as a vehicle control. […] Additional substituents at the aromatic structures, such as halogen atoms or hydroxy groups may contribute to the reactivity of the compound, but are not essential. Based on these findings, the inventors have extended their structure activity-relationship studies and synthesized additional related compounds, which, similar to Mb31, displace FAK and paxillin at concentrations below 10µM (++), displace FAK and paxillin at concentrations above 10 µM (+), or lack FAK and paxillin displacing activity (-). All these substances were then also nicknamed in the FLocker terminology, resulting in FLocker1 - FLocker24 (Table 2). Table 2: Overview of FootLocker nomenclature, their chemical notation/structure and the activity towards FAK/Paxillin displacement

NIH-v-Src fibroblasts = test: EGF-stimulated cell migration of transformed cells; type: cell-based; conditions: 10 ng/ml EGF, tracked 6 h before and 6 h after addition
Protocol: (§1) Image J was used to automatically quantify FAK-containing focal adhesions due to local maxima of fluorescence intensity in the GFP-channel (5 to 70 pixel). The number of cells was automatically counted in the Hoechst channel. To test reproducibility of the system 40 control wells were quantified wherein four positions for each well were imaged. […] GFP-FAK mouse embryonic fibroblasts were seeded on fibronectin and incubated for 1 h with the indicated concentrations of the small compounds, respectively. […] GFP-FAK mouse embryonic fibroblasts were seeded on fibronectin and serum-starved overnight. The indicated concentrations of Mb31 were applied for 30 min. Cells were lysed and analyzed for paxillin and FAK protein level as well as FAK Tyr397 phosphorylation. […] The purified kinase domain of FAK was incubated with increasing amounts of Mb31 for 1 h at 30°C together with poly-Glu-Tyr as a FAK substrate. […] Serum-starved GFP-FAK mouse embryonic fibroblasts were stimulated with normal growth medium and incubated for 5 h with the indicated concentrations of the small molecule compounds, respectively. Cell viability was assessed by MTT assay. […] GFP-FAK MEFs were seeded on fibronectin and serum-starved overnight. Migration was stimulated by replacing the medium with normal growth medium. Migration of single cells was tracked for 8 h in 30 min intervals. Migration was recorded from cells that were cultured without serum (A), with serum (B) or with serum in the presence of 3 µM Mb31 (C). […] (A) GFP-FAK MEFs were seeded and serum-starved as in Figure 10. Cell migration was stimulated with normal growth medium and single cells were tracked for 5 h. […] Mouse embryonic fibroblasts (MEFs) were transfected with talin-mCherry and talin dynamics analyzed in focal adhesions using fluorescence recovery after photobleaching (FRAP). […] (C) Wound closure was microscopically analyzed and evaluated using ImageJ software.
To further determine whether Mb31 interferes with cell motility, GFP-FAK MEFs were serum-stimulated and migration was quantified on a single cell basis (Figures 11 and 12). […]

[1] = test system: MDA-MB-231 breast cancer cells; test: In vitro wound healing assay; type: cell-based, human; conditions: 3 µM, 25 h, serum-containing growth medium
Protocol: as §1, with “h. (B) Mb31 was added and the same cells were tracked for additional 5 h. (C) Mean velocities of differently treated cells were plotted over time. […] NIH-v-Src fibroblasts were seeded on 2 µg/ml FN in DMEM/0.5%BSA and stimulated with 10 ng/ml EGF or kept unstimulated.” for “h.”, “(FRAP). Cells were left untreated (A) or treated with 10 µM of Mb31 (B). In untreated cells, the mCherry intensity recovered, indicating replacement of bleached by non-bleached talin and therefore turnover of talin at focal adhesions.” for “(FRAP).”
To determine if the migration of transformed cells can be blocked by FLocker1 and related compounds, human breast carcinoma cells (MDA-MB-231) were used in in vitro wound healing assays. […] The ability of the cells to migrate and close the wound space was monitored by microscopy and quantified (Figure 18B and C).

T1 sequence (P34152 whole entry): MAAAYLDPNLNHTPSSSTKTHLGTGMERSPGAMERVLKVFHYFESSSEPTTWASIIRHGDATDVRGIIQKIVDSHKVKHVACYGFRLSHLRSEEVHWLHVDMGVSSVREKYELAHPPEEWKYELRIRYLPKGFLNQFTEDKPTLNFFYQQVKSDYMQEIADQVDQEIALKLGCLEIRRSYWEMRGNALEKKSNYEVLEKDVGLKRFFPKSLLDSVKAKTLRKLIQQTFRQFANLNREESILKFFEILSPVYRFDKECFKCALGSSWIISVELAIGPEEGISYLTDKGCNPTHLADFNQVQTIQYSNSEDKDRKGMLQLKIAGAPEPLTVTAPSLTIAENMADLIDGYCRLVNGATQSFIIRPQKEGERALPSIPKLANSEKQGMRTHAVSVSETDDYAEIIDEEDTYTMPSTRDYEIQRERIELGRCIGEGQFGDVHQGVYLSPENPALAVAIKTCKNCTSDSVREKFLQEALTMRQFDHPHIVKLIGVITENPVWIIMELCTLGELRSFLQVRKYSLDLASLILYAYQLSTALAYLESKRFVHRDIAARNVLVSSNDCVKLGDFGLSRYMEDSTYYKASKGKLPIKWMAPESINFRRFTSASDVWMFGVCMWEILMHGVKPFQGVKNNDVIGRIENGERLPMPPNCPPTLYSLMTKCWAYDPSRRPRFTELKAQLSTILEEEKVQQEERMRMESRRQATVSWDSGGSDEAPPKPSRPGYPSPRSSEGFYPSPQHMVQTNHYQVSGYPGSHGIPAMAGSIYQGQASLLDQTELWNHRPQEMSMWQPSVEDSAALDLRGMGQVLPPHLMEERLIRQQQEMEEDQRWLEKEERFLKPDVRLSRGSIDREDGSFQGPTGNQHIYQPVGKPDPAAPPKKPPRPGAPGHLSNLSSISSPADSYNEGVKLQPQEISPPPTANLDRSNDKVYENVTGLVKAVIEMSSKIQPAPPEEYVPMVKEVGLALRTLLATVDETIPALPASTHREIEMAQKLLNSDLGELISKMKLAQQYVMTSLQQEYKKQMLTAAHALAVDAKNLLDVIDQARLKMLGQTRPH
T1 sequence (Q8VI36 whole entry): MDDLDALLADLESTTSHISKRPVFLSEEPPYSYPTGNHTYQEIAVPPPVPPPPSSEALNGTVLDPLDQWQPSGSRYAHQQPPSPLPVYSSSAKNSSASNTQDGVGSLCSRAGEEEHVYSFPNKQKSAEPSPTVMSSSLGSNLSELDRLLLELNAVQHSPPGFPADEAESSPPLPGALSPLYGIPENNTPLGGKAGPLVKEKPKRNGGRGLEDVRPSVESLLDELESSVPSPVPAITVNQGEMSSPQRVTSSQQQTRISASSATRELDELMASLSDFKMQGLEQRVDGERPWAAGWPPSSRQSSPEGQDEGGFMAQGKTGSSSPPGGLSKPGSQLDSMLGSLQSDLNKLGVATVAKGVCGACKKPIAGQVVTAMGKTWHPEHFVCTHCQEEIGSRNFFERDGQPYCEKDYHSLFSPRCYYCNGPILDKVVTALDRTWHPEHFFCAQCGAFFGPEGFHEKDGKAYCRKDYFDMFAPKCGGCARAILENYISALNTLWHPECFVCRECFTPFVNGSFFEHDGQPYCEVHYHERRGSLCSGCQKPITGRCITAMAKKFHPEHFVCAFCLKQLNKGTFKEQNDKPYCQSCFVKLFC

SMILES	FAK displacing ability (FAK/Paxillin; GFP-FAK mouse fibroblasts, 30 min, 1, 10 or 20 µM)	migration of EGF-stimulated cells (NIH-v-Src fibroblasts)	compounds showing the most prominent effect on protein-protein interactions at focal adhesion site (FAK/Paxillin)	disruption of protein-protein interactions at focal adhesion site (FAK/Paxillin)	migration of cancer cells / wound closure [1]
O=C(O)/C=C/c1cc(Br)cs1 [FootLocker 24, trans-3-(4-Bromothiophen-2-yl)acrylic acid, reference compound]	without FAK displacing ability	no effect	–	–	–
O=[N+]([O-])/C=C/c1ccc(F)cc1 [FootLocker 14, (E)-1-fluoro-4-(2-nitrovinyl)benzene]	–	–	most prominent effect	efficiently disrupt protein-protein interactions at focal adhesion site	retarded the migration of the cancer cells
CN(c1ccccc1CNc1nc(Nc2ccc3c(c2)CC(=O)N3)ncc1C(F)(F)F)S(C)(=O)=O [PF431396]	–	efficiently inhibit the migration	–	–	–
O=[N+]([O-])/C=C/c1cccc(O)c1 [FootLocker 3, (E)-3-(2-nitrovinyl)phenol]	–	–	most prominent effect	efficiently disrupt protein-protein interactions at focal adhesion site	retarded the migration of the cancer cells
